Assay results reported in ChEMBL document CHEMBL1201862, “PubChem BioAssay data set” (2004).
Calls of active or inactive are those of the source. Rule as the data show it, for most assays here: actives have a measured EC50 and inactives only a lower limit.

Tests used:
[1] = system: Streptococcus sp. 'group A'; test: Streptococcus pyogenes SK(-)GAS viability under kanamycin – luminescence, BacTiterGlo, confirmation, counter-screen for streptokinase expression inhibitor project, dose response (AID 1900); type: functional, organism-based
[2] = system: Streptococcus; test: GAS UMAA2166 growth inhibition – luminescence, BacTiterGlo, counter-screen for streptokinase expression inhibitor project, dose response (AID 1915); type: functional, organism-based;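 also: potency for reduction of bacterial viability or growth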
[3] = target: T1, Streptokinase A (Streptococcus pyogenes serotype M1, UniProt P10520); test: viability-normalized secreted streptokinase activity reduction – plasminogen activation absorbance, OD405, dose response (AID 1914); type: functional, Streptococcus pyogenes M1 GAS;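 also: secreted streptokinase activity via plasminogen activation per viability signal from cell pellet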
T1 sequence (P10520 whole entry): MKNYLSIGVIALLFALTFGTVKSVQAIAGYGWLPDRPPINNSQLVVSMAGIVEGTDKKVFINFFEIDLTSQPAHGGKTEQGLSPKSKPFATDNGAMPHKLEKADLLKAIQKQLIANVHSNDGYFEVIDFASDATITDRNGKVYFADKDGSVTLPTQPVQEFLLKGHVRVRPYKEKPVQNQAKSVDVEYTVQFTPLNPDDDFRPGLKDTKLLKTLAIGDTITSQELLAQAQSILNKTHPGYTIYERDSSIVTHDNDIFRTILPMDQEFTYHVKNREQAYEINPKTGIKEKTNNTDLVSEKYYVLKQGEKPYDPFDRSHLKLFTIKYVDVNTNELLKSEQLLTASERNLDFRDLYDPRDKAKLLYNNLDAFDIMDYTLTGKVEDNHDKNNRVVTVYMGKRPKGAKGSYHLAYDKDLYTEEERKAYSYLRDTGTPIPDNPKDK

[4] = target: T2, Heat shock factor protein 1 (Mus musculus, UniProt P38532); test: decrease of HSF1-responsive luciferase luminescence – cell-based, NIH3T3, dose retest, confirmation (AID 2382); type: functional;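 also: NIH3T3 fibroblasts with HSF1-driven luciferase reporter stressed by proteasome inhibitor MG132; luminescence from HSF1-driven luciferase expression after 8 hours of MG132 stress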
T2 sequence (P38532 whole entry): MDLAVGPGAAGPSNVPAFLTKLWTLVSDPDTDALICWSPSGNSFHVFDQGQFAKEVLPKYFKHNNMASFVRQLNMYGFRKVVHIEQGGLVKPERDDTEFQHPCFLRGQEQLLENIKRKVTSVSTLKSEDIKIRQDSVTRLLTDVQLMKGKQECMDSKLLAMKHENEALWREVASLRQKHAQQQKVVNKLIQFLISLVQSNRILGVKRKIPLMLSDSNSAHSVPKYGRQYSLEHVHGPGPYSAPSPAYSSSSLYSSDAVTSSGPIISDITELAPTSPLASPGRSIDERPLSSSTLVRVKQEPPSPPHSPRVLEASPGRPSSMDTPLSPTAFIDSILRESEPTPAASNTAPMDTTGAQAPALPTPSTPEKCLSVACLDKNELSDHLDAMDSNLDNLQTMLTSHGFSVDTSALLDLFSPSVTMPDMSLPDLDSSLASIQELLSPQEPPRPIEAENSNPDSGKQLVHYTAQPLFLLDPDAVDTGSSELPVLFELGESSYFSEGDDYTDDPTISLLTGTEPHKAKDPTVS

[5] = target: Cytochrome P450 3A4 (Homo sapiens, UniProt P08684);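 also: CYP3A4 tested as one member of a cytochrome P450 panel screen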
Sequence of Cytochrome P450 3A4 (P08684 whole entry): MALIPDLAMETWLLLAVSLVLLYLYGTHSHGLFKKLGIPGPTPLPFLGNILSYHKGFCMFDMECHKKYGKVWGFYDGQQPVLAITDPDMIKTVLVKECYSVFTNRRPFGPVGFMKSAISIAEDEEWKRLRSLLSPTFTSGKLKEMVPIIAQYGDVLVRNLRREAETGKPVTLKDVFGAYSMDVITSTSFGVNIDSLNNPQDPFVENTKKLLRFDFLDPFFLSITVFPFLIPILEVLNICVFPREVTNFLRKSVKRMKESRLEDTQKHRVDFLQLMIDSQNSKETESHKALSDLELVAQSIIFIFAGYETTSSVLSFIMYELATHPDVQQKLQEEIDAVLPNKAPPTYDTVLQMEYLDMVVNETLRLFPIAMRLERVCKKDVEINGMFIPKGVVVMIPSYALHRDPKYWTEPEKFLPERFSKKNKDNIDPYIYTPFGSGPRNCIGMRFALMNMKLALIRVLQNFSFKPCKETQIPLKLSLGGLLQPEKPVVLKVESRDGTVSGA

[6] = target: T3, Cytochrome P450 1A2 (Homo sapiens, UniProt P05177);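 also: PubChem cytochrome P450 panel assay, CYP1A2 panel member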
T3 sequence (P05177 whole entry): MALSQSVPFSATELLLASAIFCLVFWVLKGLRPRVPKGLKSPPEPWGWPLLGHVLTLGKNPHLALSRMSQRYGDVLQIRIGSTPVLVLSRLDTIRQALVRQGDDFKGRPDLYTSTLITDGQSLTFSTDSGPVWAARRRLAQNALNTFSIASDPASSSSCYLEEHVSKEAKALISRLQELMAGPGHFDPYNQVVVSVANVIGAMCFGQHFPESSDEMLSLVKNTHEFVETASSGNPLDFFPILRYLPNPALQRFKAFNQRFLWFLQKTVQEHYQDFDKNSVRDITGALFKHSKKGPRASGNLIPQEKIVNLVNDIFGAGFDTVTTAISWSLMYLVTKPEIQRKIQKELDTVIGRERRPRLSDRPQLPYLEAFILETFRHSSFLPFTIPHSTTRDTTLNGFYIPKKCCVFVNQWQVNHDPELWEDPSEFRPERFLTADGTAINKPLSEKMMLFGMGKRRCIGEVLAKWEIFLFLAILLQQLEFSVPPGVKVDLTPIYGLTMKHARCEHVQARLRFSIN

[7] = NIH3T3 cell viability loss – ATP luminescence, mouse fibroblasts, counter-screen, dose response (AID 2010); type: functional, cell-based;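 also: cells exposed to compound for about 90 hours before reading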
[8] = Trypanosoma cruzi growth suppression in host cells – NIH3T3 host cells, beta-gal luminescence, confirmation (AID 2044); type: functional, cell-based;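 also: intracellular parasites grown in NIH/3T3 mouse fibroblasts as host cells; luminescent beta-galactosidase reporter signal from transgenic T. cruzi replicating inside host cells; inhibitors lower the luminescence signal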
[9] = alpha-synuclein stem-loop luciferase translation blockers – H4 neuroglioma cells, luminescence, confirmation (AID 1988); type: functional, cell-based
[10] = luciferase reporter signal suppression in cells – H4 neuroglioma cells, luminescence, dose response (AID 1990); type: functional, cell-based
[11] = Luminescence Cell-Based Dose Response HTS to Identify Inhibitors of 5'UTR Stem-Loop Driven Prion Protein mRNA Translation in H4 Neuroglioblastoma Cells. [Related pubchem assays: 1827 (Project Summary), 1813 (Primary HTS)]; type: functional
[12] = Luminescence Cell-Based Dose Retest to Confirm Inhibitors of Cancer Stem Cells. [Related pubchem assays (depositor defined):AID2717, AID2721]; type: functional; settings: Homo sapiens
[13] = target: T4, Corticotropin-releasing factor receptor 2/Corticotropin-releasing factor-binding protein (Homo sapiens, UniProt P24387+Q13324); test: activators of CRF receptor 2 with binding protein – uHTS hits, confirmation (AID 602473); type: functional; settings: read-out: EC50_Mean
T4 sequence (Q13324 whole entry): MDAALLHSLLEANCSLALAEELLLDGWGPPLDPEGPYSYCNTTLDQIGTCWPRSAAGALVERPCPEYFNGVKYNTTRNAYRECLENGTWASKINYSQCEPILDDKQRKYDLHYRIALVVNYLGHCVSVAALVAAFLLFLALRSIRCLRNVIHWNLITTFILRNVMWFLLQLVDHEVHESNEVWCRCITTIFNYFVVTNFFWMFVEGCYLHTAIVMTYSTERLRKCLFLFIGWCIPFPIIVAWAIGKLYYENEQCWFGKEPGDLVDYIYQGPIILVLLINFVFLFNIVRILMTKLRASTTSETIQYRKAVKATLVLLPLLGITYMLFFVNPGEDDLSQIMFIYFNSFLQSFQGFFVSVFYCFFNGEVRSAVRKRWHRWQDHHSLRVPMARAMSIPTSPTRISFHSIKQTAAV
T4 sequence (P24387 whole entry): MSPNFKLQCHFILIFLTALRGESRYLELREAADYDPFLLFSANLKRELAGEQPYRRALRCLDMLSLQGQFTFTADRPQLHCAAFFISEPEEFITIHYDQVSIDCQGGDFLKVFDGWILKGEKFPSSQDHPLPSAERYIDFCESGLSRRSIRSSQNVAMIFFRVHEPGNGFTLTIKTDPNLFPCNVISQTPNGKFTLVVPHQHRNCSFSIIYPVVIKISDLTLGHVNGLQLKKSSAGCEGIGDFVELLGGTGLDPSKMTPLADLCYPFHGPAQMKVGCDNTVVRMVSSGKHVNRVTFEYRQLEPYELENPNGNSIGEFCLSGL

SMILES: COc1ccc(C(=O)CSc2nc(-c3ccccn3)nc(C)c2Cl)cc1
- EC50 [1]: 7.92 µM (active)
- EC50 [2]: 36.4 µM (active)
- EC50 [3]: > 150 µM (not active)

SMILES: COc1ccc(Cl)cc1C(=O)NCC(=O)OCc1ccccc1
- EC50 [4]: > 195 µM (not active)

SMILES: O=C(Nc1cccnc1)c1coc(=O)c2ccccc12
- EC50 [4]: > 195 µM (not active)

SMILES: CSc1cccc(NC(=O)OC2CCCCCCCCCCC2)c1
- EC50 [1]: 4.09 µM (active)
- AC50 [5]: 3.16 µM (inconclusive)
- AC50 [6]: 5.01 µM (inconclusive)
- EC50 [2]: 10.8 µM (active)
- EC50 [3]: 2.93 µM (active)

SMILES: Cc1cccc(NC(=S)/N=C(\N)Nc2nc(C)c3ccc(C)cc3n2)c1
- EC50 [7]: > 60 µM (not active)
- EC50 [1]: 77.2 µM (active)
- EC50 [2]: > 150 µM (not active)
- EC50 [8]: 2.12 µM (active)
- EC50 [3]: > 150 µM (inconclusive)

SMILES: C/C(=N\NC(=O)C12CCC(C)(C(=O)O1)C2(C)C)c1ccccc1O (stereo not drawn)
- EC50 [9]: > 120 µM (not active)
- EC50 [10]: 13.1 µM (active)
- EC50 [11]: 13.5 µM (active)

SMILES: Cn1nc(-c2ccccc2)c(CSc2cccc(Cl)c2)c1Cl
- EC50 [2]: > 150 µM (not active)
- EC50 [3]: 19.8 µM (active)

SMILES: CC(=O)c1cnc(SCC(=O)O)nc1C
- EC50 [9]: > 120 µM (not active)
- EC50 [10]: > 120 µM (not active)
- EC50 [11]: > 120 µM (not active)

SMILES: COc1ccccc1OCC(=O)NNC(=S)NC(=O)c1ccco1
- EC50 [1]: 2.81 µM (active)
- EC50 [2]: 41.4 µM (active)
- EC50 [3]: > 150 µM (not active)

SMILES: O=S1(=O)N[C@H](c2ccccc2)C[C@H](c2ccc(C(F)(F)F)cc2)O1
- EC50 [4]: > 195 µM (not active)

SMILES: N#C/C(=C\c1c[nH]c2ccc(Br)cc12)c1ccccn1
- AC50 [12]: 2.25 µM (active)
- EC50 [1]: 18.7 µM (active)
- EC50 [2]: > 150 µM (not active)
- EC50 [3]: 51.6 µM (active)

SMILES: CC1Cc2cc(C(=O)C3=C(O)C(=O)N(CC4CCCO4)C3c3ccco3)ccc2O1 (stereo not drawn)
- EC50 [4]: 69.9 µM (active)

SMILES: N#CCc1nn(-c2ccccc2)c2ncnc(N)c12
- EC50 [4]: 30.8 µM (active)

SMILES: C/N=C1\S/C(=C\c2ccc(N3CCOCC3)c(F)c2)C(=O)N1C
- EC50 [1]: 5.33 µM (active)
- EC50 [2]: 12.2 µM (active)
- EC50 [3]: > 150 µM (not active)

SMILES: CCC1Sc2ccc(S(=O)(=O)Nc3ccc(OC)cc3)cc2NC1=O (stereo not drawn)
- EC50 [4]: > 195 µM (not active)

SMILES: COC(=O)c1cccc(NC(=S)NCc2ccc(Cl)cc2)c1
- EC50 [3]: > 150 µM (not active)

SMILES: CCOC(=O)c1ccc(NC(=O)N2CCN(S(C)(=O)=O)CC2)cc1
- EC50 [4]: > 195 µM (not active)

SMILES: CCOC(=O)c1c(C)[nH]c(C(=O)Cn2c(=O)c3c(ncn3CC)n(Cc3ccccc3)c2=O)c1C
- EC50 [9]: 17.2 µM (active)
- EC50 [10]: > 120 µM (not active)
- EC50 [11]: > 120 µM (not active)

SMILES: O=C(NCCCN1CCCC1=O)c1cccc(N2CCCC2=O)c1
- EC50 [4]: > 195 µM (not active)

SMILES: CCn1nc([N+](=O)[O-])c2c(-c3nc4ccccc4o3)c(N)n(CCCOC)c2c1=O
- EC50 [9]: > 120 µM (not active)
- EC50 [10]: > 120 µM (not active)
- EC50 [11]: > 120 µM (not active)

SMILES: Cc1ccc(-c2ccnc3c(Cl)c(C)nn23)cc1
- EC50 [9]: 13.7 µM (active)
- EC50 [10]: > 120 µM (not active)
- EC50 [11]: > 120 µM (not active)

SMILES: SC1=NC[C@H](CC2CCCCC2)N1CC1CCCCC1
- EC50 [1]: 12.6 µM (active)
- EC50 [2]: 19.6 µM (active)
- EC50 [3]: 25.4 µM (active)

SMILES: CC/N=C1/S/C(=C\c2cn(CC(=O)NCc3ccco3)c3ccccc23)C(=O)N1CC
- EC50 [9]: 13.9 µM (active)
- EC50 [10]: 11.1 µM (active)
- EC50 [11]: 14.8 µM (active)

SMILES: O=C(Nc1cccc2ncccc12)C(Cl)(Cl)Cl
- EC50 [4]: > 195 µM (not active)

SMILES: CCCCSc1nc2c(c(=O)n1CC)SC(C)C2 (stereo not drawn)
- EC50 [9]: > 120 µM (not active)
- EC50 [10]: 15.3 µM (active)
- EC50 [11]: > 60 µM (not active)

SMILES: COc1ccc([C@H]2Oc3cc(O)cc(O)c3C(=O)C2[C@@H]2C(=O)c3c(O)cc(O)cc3O[C@@H]2c2ccc(OC)cc2)cc1 (stereo partly drawn)
- AC50 [12]: 7.4 µM (active)
- EC50 [1]: 2.34 µM (active)
- EC50 [2]: 2.42 µM (active)
- EC50 [3]: 1.7 µM (active)

SMILES: O=C(CC1CCCCC1)c1c(O)c2ccccc2oc1=O
- EC50 [1]: 3.42 µM (active)
- EC50 [2]: 55 µM (active)
- EC50 [13]: 7.06 µM (active)
- EC50 [3]: > 150 µM (not active)

SMILES: CCSc1nnc(-c2ccc(S(=O)(=O)NCc3cccs3)cc2)o1
- EC50 [4]: > 195 µM (not active)

SMILES: Fc1ccccc1CNc1cc(Cl)cc(Cl)c1
- EC50 [1]: 9.65 µM (active)
- EC50 [2]: 17.8 µM (active)
- EC50 [3]: > 150 µM (not active)

SMILES: S=C(NCc1ccco1)N1CCN(c2nc(-c3ccc(Cl)cc3)cs2)CC1
- EC50 [1]: 9.38 µM (active)
- EC50 [2]: 32.1 µM (active)
- EC50 [3]: 36.4 µM (active)

SMILES: Cc1cc(NC(=O)COc2coc(CN3CCN(c4ccccc4F)CC3)cc2=O)no1
- EC50 [4]: > 195 µM (not active)

SMILES: O=C(NC1CCCCC1)NC1C2CC3CC(C2)CC1C3 (stereo not drawn)
- EC50 [1]: > 150 µM (not active)
- EC50 [2]: > 150 µM (not active)
- EC50 [3]: > 150 µM (not active)

SMILES: CN(C)c1ccc(/C=N\Nc2nc(O)cc(-c3ccccc3)n2)cc1
- EC50 [4]: > 195 µM (not active)

SMILES: Cc1cc(C)nc(-n2c(C)nc3cc(Cl)ccc3c2=O)c1
- EC50 [4]: 35.9 µM (active)

SMILES: CCCN1C(=O)COc2ccc(-c3nnc(O)c4ccccc34)cc21
- EC50 [9]: 30.9 µM (active)
- EC50 [10]: 22.7 µM (active)
- EC50 [11]: > 120 µM (not active)
